From patent US20060128724A1, “Pyrazole-substituted aminoheteroaryl compounds as protein kinase inhibitors” (AGOURON PHARMACEUTICALS, INC., priority 2004, published 2006)
Like-named read-outs stand apart in the source and are kept apart here.

Molecular target: T1, c-MET (HGFR) (Homo sapiens, UniProt P08581)
T1 construct: purchased Upstate 14-526
Experiment: HGFR Continuous-Coupled Spectrophotometric Assay
Format: biochemical
Details: Met-2 substrate peptide, 50 nM HGFR, 37° C.
Source text: The following in vitro assay may be used to determine the level of activity and effect of the different compounds of the present invention on one or more of the PKs. Similar assays can be designed along the same lines for any PK using techniques well known in the art.
The general procedure is as follows: compounds and kinase assay reagents are introduced into test wells. The assay is initiated by addition of the kinase enzyme. Enzyme inhibitors reduce the measured activity of the enzyme.
In the continuous-coupled spectrophotometric assay the time-dependent production of ADP by the kinase is determined by analysis of the rate of consumption of NADH by measurement of the decrease in absorbance at 340 nm. As the PK produces ADP it is re-converted to ATP by reaction with phosphoenol pyruvate and pyruvate kinase. Pyruvate is also produced in this reaction. Pyruvate is subsequently converted to lactate by reaction with lactate dehydrogenase, which simultaneously converts NADH to NAD.
HGFR Continuous-Coupled Spectrophotometric Assay
This assay analyzes the tyrosine kinase activity of HGFR on the Met-2 substrate peptide, a peptide derived from the activation loop of the HGFR.
• 1. […] Dissolve up in 200 mM HEPES, pH 7.5 at 10 mM stock. • 3. 1 M PEP (phospho-enol-pyruvate) in 200 mM HEPES, pH 7.5 • 4. 100 mM NADH (B-Nicotinamide Adenine Dinucleotide, Reduced Form) in 200 mM HEPES, pH 7.5 • 5. 4 M MgCl2 (Magnesium Chloride) in ddH2O • 6. 1 M DTT (Dithiothreitol) in 200 mM HEPES, pH 7.5 • 7. 15 Units/mL LDH (Lactic Dehydrogenase) • 8. 15 Units/mL PK (Pyruvate Kinase) • 9. 5M NaCl dissolved in ddH2O • 10. Tween-20 (Protein Grade) 10% Solution • 11. 1 M HEPES buffer: (N-[2-Hydroxethyl]piperazine-N-[2-ethanesulfonic acid]) Sodium Salt. Dissolve in ddH2O, adjust pH to 7.5, bring volume to 1 L. Filter at 0.1 μm. • 12. […] 100% DMSO (SIGMA) • 14. […] Beckman DU-650 w/micro cell holders • 18. Beckman 4-position micro cell cuvette Procedure:
Prep Dilution Buffer (DB) for Enzyme (For 30 mL prep) • 1. DB final concentration is 2 mM DTT, 25 mM NaCl2, 5 mM MgCl2, 0.01% Tween-20, and 50 mM HEPES buffer, pH 7.5. • 2. Make up 50 mM HEPES by adding 1.5 mL 1 M HEPES into 28.1 mL of ddH2O. Add rest of the reagents. Into 50 mL conical vial, add 60 μL of 1M DTT, 150 μL 5M NaCl2, 150 μL 1M MgCl2, and 30 μL of 10% Tween-20 to give total volume of 30 mL. • 3. […] Aliquot out DB at 1 mL/tube and label tubes as “DB HGFR” • 5. Note: This can be prepared and stored ahead of time. • 6. Freeze un-used aliquots in microcentrifuge tubes at −20° C. freezer. […] For compound dilution plate, add 4 μL of 10 mM stock into column 1 of plate, and bring volume to 100 μL with 100% DMSO. • 2. Set up the Precision 2000 dilution method. A final concentration of 200 μM compound in 50% DMSO, 100 mM HEPES (1:2 serial dilution). Prep Coupled Enzymatic Buffer:
1. Final concentration in assay:
• 2. For a 10 mL reaction buffer add 10 μL of 1M PEP, 33 μL of 100 mM NADH, 50 μL of 4M MgCl2, 20 μL of 1M DTT, 6 μL of 500 mM ATP, and 500 μL of 10 mM Met-2 peptide into 100 mM HEPES buffer pH 7.5 and vortex/mix. • 3. Add coupling enzymes, LDH and PK, into reaction mix. Mix by gentle inversion. Running Samples
1. Spectrophotometer settings:
• 2. Add 85 μL of CE reaction mix into each well of assay plate. • 3. Add 5 μL of diluted compound into a well of the assay plate. • 4. Add 5 μL of 50% DMSO for negative control into last column of assay plate. • 5. Mix with multi-channel pipettor or orbital shaker. • 6. Pre-incubate for 10 minutes at 37° C. • 7. Add 10 μL of 500 nM HGFR to each well of assay plate; the final HGFR concentration is 50 nM in a total final volume of 100 μL. • 8. Measure activity for 10 minutes at λ=340 nm and 37° C.

T1 sequence (P08581 974-1390 limits assumed): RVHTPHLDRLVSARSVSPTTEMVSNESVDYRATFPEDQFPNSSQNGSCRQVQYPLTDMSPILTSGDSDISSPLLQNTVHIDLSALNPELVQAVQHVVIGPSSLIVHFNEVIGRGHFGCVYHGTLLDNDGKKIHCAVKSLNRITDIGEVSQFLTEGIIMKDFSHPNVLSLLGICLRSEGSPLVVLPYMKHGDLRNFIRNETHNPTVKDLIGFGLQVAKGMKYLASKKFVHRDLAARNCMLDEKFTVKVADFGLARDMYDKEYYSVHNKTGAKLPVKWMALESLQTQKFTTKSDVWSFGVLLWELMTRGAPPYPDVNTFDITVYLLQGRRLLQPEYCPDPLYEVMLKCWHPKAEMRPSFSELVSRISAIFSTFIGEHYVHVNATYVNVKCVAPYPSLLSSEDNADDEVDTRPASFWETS

| SMILES | Ki (read-out: c-Met Ki) | Ki (read-out: Met Ki) |
| --- | --- | --- |
| CC(Oc1cc(-c2cnn(C3CNC(C(N)=O)C3)c2)cnc1N)c1c(Cl)ccc(F)c1Cl (centres unmarked) [Example 91, 4-(4-{6-Amino-5-[1-(2,6-dichloro-3-fluoro-phenyl)-ethoxy]-pyridin-3-yl}pyrazol-1-yl)-pyrrolidine-2-carboxylic acid amide] | 44 nM | – |
| CC(Oc1cc(-c2cnn(C(C)(C)C(=O)N3CCCC3)c2)cnc1N)c1c(Cl)ccc(F)c1Cl (centres unmarked) [Example 57, 2-(4-{6-Amino-5-[1-(2,6-dichloro-3-fluoro-phenyl)-ethoxy]-pyridin-3-yl}-pyrazol-1-yl)-2-methyl-1-pyrrolidin-1-yl-propan-1-one] | 425 nM | – |
| CC(Oc1cc(-c2cnn(C(C)(C)C(=O)NCCO)c2)cnc1N)c1c(Cl)ccc(F)c1Cl (centres unmarked) [Example 35, 2-(4-{6-Amino-5-[1-(2,6-dichloro-3-fluoro-phenyl)-ethoxy]-pyridin-3-yl}-pyrazol-1-yl)-N-(2-hydroxy-ethyl)-isobutyramide] | 60 nM | – |
| C[C@@H](Oc1nc(-c2cnn(C3CCNCC3)c2)cnc1N)c1c(Cl)ccc(F)c1Cl [Example 66, 3-[(R)-1-(2,6-Dichloro-3-fluoro-phenyl)-ethoxy]-5-(1-piperidin-4-yl-1H-pyrazol-4-yl)-pyrazin-2-ylamine] | 10 nM | – |
| COCCNC(=O)C(C)(C)n1cc(-c2cnc(N)c(OC(C)c3c(Cl)ccc(F)c3Cl)c2)cn1 (centres unmarked) [Example 34, 2-(4-{6-Amino-5-[1-(2,6-dichloro-3-fluoro-phenyl)-ethoxy]-pyridin-3-yl}-pyrazol-1-yl)-N-(2-methoxy-ethyl)-isobutyramide] | 90 nM | – |
| Cc1nn(C(C)(C)C(=O)O)cc1-c1cnc(N)c(OC(C)c2c(Cl)ccc(F)c2Cl)c1 (centres unmarked) [Example 33, 2-(4-{6-Amino-5-[1-(2,6-dichloro-3-fluoro-phenyl)-ethoxy]-pyridin-3-yl}-3-methyl-pyrazol-1-yl)-2-methyl-propionic acid] | 130 nM | – |
| CC(Oc1cc(-c2cnn(C)c2N)cnc1N)c1c(Cl)ccc(F)c1Cl (centres unmarked) [Example 13, 5-(5-Amino-1-methyl-1H-pyrazol-4-yl)-3-[1-(2,6-dichloro-3-fluoro-phenyl)-ethoxy]-pyridin-2-ylamine] | 130 nM | – |
| CC(Oc1cc(-c2cnn(C3CC4CCC(C3)N4C)c2)cnc1N)c1c(Cl)ccc(F)c1Cl (centres unmarked) [Example 115, 3-[1-(2,6-dichloro-3-fluorophenyl)ethoxy]-5-[1-(8-methyl-8-azabicyclo[3.2.1]oct-3-yl)-1H-pyrazol-4-yl]pyridin-2-amine] | 9 nM | – |
| CC(Oc1cc(Br)cnc1N)c1c(Cl)c(F)cc(OCCN(C)C)c1Cl (centres unmarked) [Example 153, 5-Bromo-3-{1-[2,6-dichloro-3-(2-dimethylamino-ethoxy)-5-fluoro-phenyl]-ethoxy}-pyridin-2-ylamine] | – | 805 nM |
| CC(Oc1cc(-c2cnn(C)c2)cnc1N)c1c(Cl)c(F)cc(OC2CCCNC2)c1Cl (centres unmarked) [Example 156, 3-{1-(2,6-Dichloro-3-fluoro-5-(piperidin-3-yloxy)-phenyl]-ethoxy}-5-(1-methyl-1H-pyrazol-4-yl)-pyridin-2-ylamine] | – | 36 nM |

Further lines, results first:

| Ki (read-out: c-Met Ki) | Ki (read-out: Met Ki) | SMILES |
| --- | --- | --- |
| – | 45 nM | CC(Oc1cc(-c2cnn(CC(C)(C)O)c2)cnc1N)c1c(Cl)ccc(F)c1Cl (centres unmarked) [Example 130, 1-(4-{6-Amino-5-[1-(2,6-dichloro-3-fluoro-phenyl)-ethoxy]-pyridin-3-yl}-pyrazol-1-yl)-2-methyl-propan-2-ol] |
| – | 22 nM | Cc1ccc(Cl)c(C(C)Oc2cc(-c3cnn(C4CCNCC4)c3)cnc2N)c1Cl (centres unmarked) [Example 143, 3-[1-(2,6-Dichloro-3-methyl-phenyl)-ethoxy]-5-(1-piperidin-4-yl-1H-pyrazol-4-yl)-pyridin-2-ylamine] |
| 10 nM | – | C[C@@H](Oc1cc(-c2cnn(C3CCN(C)CC3)c2)cnc1N)c1c(Cl)ccc(F)c1Cl [Example 46, 3-[(R)-1-(2,6-Dichloro-3-fluoro-phenyl)-ethoxy]-5-[1-(1-methyl-piperidin-4-yl)-1H-pyrazol-4-yl]-pyridin-2-ylamine] |
| 42 nM | – | CCOC(=O)[C@H]1CC1Cn1cc(-c2cnc(N)c(OC(C)c3c(Cl)ccc(F)c3Cl)c2)cn1 (stereo in doubt) [Example 9, ethyl 2-[(4-{6-amino-5-[1-(2,6-dichloro-3-fluorophenyl)ethoxy]pyridin-3-yl}-1H-pyrazol-1-yl)methyl]cyclopropanecarboxylate] |
| – | 37 nM | CC(C)Oc1ccc(Cl)c(C(C)Oc2cc(-c3cnn(C4CCNCC4)c3)cnc2N)c1Cl (centres unmarked) [Example 140, 3-[1-(2,6-Dichloro-3-isopropoxy-phenyl)-ethoxy]-5-(1-piperidin-4-yl-1H-pyrazol-4-yl)-pyridin-2-ylamine] |
| – | 24 nM | CC(Oc1cc(-c2cnn(C[C@H]3CCC(=O)N3)c2)cnc1N)c1c(Cl)ccc(F)c1Cl (stereo partly drawn) [Example 134, 5-(4-{6-Amino-5-[1-(2,6-dichloro-3-fluoro-phenyl)-ethoxy]-pyridin-3-yl}-pyrazol-1-ylmethyl)-pyrrolidin-2R-one] |
| 55 nM | – | CNCCn1cc(-c2cnc(N)c(OC(C)c3c(Cl)ccc(F)c3Cl)c2)cn1 (centres unmarked) [Example 73, 3-[1-(2,6-Dichloro-3-fluoro-phenyl)-ethoxy]-5-[1-(2-methylamino-ethyl)-1H-pyrazol-4-yl]-pyridin-2-ylamine] |
| 56 nM | – | CC(Oc1cc(-c2cnn(CC3CCNCC3)c2)cnc1N)c1c(Cl)ccc(F)c1Cl (centres unmarked) [Example 81, 3-[1-(2,6-Dichloro-3-fluoro-phenyl)-ethoxy]-5-(1-piperidin-4-ylmethyl-1H-pyrazol-4-yl)-pyridin-2-ylamine] |
| 25 nM | – | CC(Oc1cc(-c2cnn(C3CN(CC#N)C3)c2)cnc1N)c1c(Cl)ccc(F)c1Cl (centres unmarked) [Example 8, [3-(4-{6-amino-5-[1-(2,6-dichloro-3-fluorophenyl)ethoxy]pyridin-3-yl}-1H-pyrazol-1-yl)azetidin-1-yl]acetonitrile] |
| – | 16 nM | CCS(=O)(=O)N1CCC(n2cc(-c3cnc(N)c(OC(C)c4c(Cl)ccc(F)c4Cl)c3)cn2)CC1 (centres unmarked) [Example 121] |
| 10 nM | – | CCN1CCC(n2cc(-c3cnc(N)c(OC(C)c4c(Cl)ccc(F)c4Cl)c3)cn2)CC1 (centres unmarked) [Example 43, 3-[1-(2,6-Dichloro-3-fluoro-phenyl)-ethoxy]-5-[1-(1-ethyl-piperidin-4-yl)-1H-pyrazol-4-yl]-pyridin-2-ylamine] |
| 10 nM | – | CC(Oc1cc(-c2cnn(C3CCN(C)CC3)c2)cnc1N)c1c(Cl)ccc(F)c1Cl (centres unmarked) [Example 39, 3-[1-(2,6-Dichloro-3-fluoro-phenyl)-ethoxy]-5-[1-(1-methyl-piperidin-4-yl)-1H-pyrazol-4-yl]-pyridin-2-ylamine] |
| 440 nM | – | CC(Oc1cc(-c2cnn(C(C)(C)C(=O)N3CCNCC3)c2)cnc1N)c1c(Cl)ccc(F)c1Cl (centres unmarked) [Example 17, 2-(4-{6-Amino-5-[1-(2,6-dichloro-3-fluoro-phenyl)-ethoxy]-pyridin-3-yl}-pyrazol-1-yl)-2-methyl-1-piperazin-1-yl-propan-1-one] |
